Earlier results on one compound are cited in patent publication US20240197637A1, “POLYMERIC MICROPARTICLES FOR THE LOCAL TREATMENT OF CHRONIC INFLAMMATORY DISEASES” (FONDAZIONE ISTITUTO ITALIANO DI TECNOLOGIA, priority 2021, published 2024).

The series deals with DMM murine model of injury-induced OA.

Take `Cc1ccc2c(c1)C1(CCN(CCc3nc(-c4ccccc4)oc3C)CC1)OC(=O)N2` [RS 504393]: the pain perception entry (orally and daily administered) is “decreased”. Further, the “severity of structural damage” value (orally and daily administered, early OA stage) is given as “decreased the severity of structural damage”. For the same compound, under “prolonged and delayed exposure”, the “cartilage and bone damage” value is listed as “did not translate in a significant reduction”; the pain result is “alleviating pain”.
